# Measured values published in patent US11192863B2, “Antiviral compounds and methods” (Biotron Limited, priority 2003, dated 2021).
# Where “and” joins values, the source holds several entries; their conditions need not be identical. Equal values may be shown once. Where a name gives a salt, the structure may show the parent alone. Read-outs that look alike come from different tables or passages of the source.
# Assays:
# MHV (strain MHV-A59) = settings: L929 cells
# SARS-CoV E protein = SARS-CoV E protein (Severe acute respiratory syndrome coronavirus, UniProt P59637); type: cell-based
# Vpu protein = Vpu protein (Human immunodeficiency virus type 1 group M subtype B, UniProt P05919); settings: halo of growth score between zero and six; XL1-blue E. coli with pPL-Vpu, no adenine, 37° C.
# Sequence of Vpu protein (P05919 whole entry): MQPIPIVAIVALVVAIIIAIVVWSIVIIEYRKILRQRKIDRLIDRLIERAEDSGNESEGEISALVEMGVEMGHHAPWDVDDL
# Sequence of SARS-CoV E protein (P59637 whole entry, looked up): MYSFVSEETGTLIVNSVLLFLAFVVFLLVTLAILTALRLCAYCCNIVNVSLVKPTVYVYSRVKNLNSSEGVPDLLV
Structure (SMILES),Percent reduction in Plaque number/# experiments (MHV (strain MHV-A59); 1 uM),Percent reduction in Plaque number/# experiments (MHV (strain MHV-A59); 10 uM),Percent reduction in Plaque number/# experiments (MHV (strain MHV-A59); 20 uM),SARS E protein Inhibition (score/# of times tested) (SARS-CoV E protein),Vpu Inhibition (score/# of times tested) (Vpu protein),Toxic (noted in place of plaque reduction) (MHV (strain MHV-A59); 20 uM)
N=C(N)NC(=O)c1ccc2ccccc2c1Br [1-bromo-2-napthoylguanidine],27/1%,27/2%,31/1%,0.25/1 score,0.06/2 score,–
N=C(N)NC(=O)/C=C/c1c(F)cccc1Cl [2-chloro-6-fluorocinnamoylguanidine],9/1%,84/2%,100/1%,0.25/1 score,–,–
"N=C(N)NC(=O)/C=C/c1ccc2c(c1)OCO2 [3,4-(methylenedioxy)cinnamoylguanidine]",45/3%,82/3%,93/3%,1.25/1 score,1.88/2 score,–
NC(N)=NC(=O)c1nc(Cl)c(N2CCCCCC2)nc1O [3-hydroxy-5-hexamethyleneimino-amiloride],1/1%,22/2%,16/1%,–,–,–
"COc1nc(N2CCCCCC2)c(Cl)nc1C(=O)N=C(N)N [3-methoxy-HMA, 3-methoxy-5-(N,N-Hexamethylene)-amiloride]",35/1%,31/1%,15/1%,1.25/1 score,0.2/4 score,–
NC(N)=NC(=O)c1cnc2ccccc2c1 [3-quinolinoylguanidine],30/1%,36/2%,27/1%,–,–,–
"N=C(N)NC(=O)/C=C/C=C/c1ccccc1Br [5-(2′-bromophenyl)penta-2,4-dienoylguanidine]",57/1%,100/1%,–,–,–,Toxic
"CCN(c1nc(N)c(C(=O)N=C(N)N)nc1Cl)C(C)C [5-(N-Ethyl-N-isopropyl)amiloride, 5-(N-ethyl-N-isopropyl)amiloride]",–,–,–,1.07/2 score,0.6/3 score,–
"CC(C)CN(C)c1nc(N)c(C(=O)N=C(N)N)nc1Cl [5-(N-Methyl-N-isobutyl)amiloride, 5-(N-methyl-N-isobutyl)amiloride]",44/2%,85/1%,92/1%,3.13/2 score,0.8/2 score,–
NC(N)=NC(=O)c1nc(I)c(N)nc1N [6-Iodoamiloride],0/1%,21/1%,28/1%,1.75/2 score,–,–
N=C(N)NC(=O)c1ccc2cc(Br)ccc2c1 [6-bromo-2-napthoylguanidine],19/1%,43/1% and 37/2%,65/1%,0.25/1 score,–,–
N=C(N)NC(=O)/C=C/c1ccccc1[N+](=O)[O-] [(2-Nitrocinnamoyl)guanidine],47/1%,77/2%,97/1%,–,0.4/2 score,–
N=C(N)NC(=O)/C=C/c1ccc([N+](=O)[O-])cc1 [(4-Nitrocinnamoyl)guanidine],40/3%,75/3%,97/1%,–,–,–
N=C(N)NC(=O)Cc1ccccc1 [(Phenylacetyl)guanidine],3/1%,22/1%,35/1%,0.32/3 score,–,–
NC(N)=NC(=O)c1ccc2ccccc2n1 [(Quinoline-2-carbonyl)guanidine],12/1%,84/1%,86/1%,0.41/1 score,–,–
"Cl.NC(N)=NC(=O)c1nc(Cl)c(N)nc1N [Amiloride•HCl, reference compound]",−5/1%,18/1%,21/1%,–,–,–
"N=C(N)NC(=O)c1ccccc1 [Benzyoylguanidine, Benzoylguanidine]",14/1%,39/2%,22/1%,–,0.88/2 score,–
"N=C(NC(=O)c1cccc2ccccc12)NC(=O)c1cccc2ccccc12 [N,N′-bis(1-napthoyl)guanidine]",35/1%,52/2%,58/1%,–,–,–
"N=C(NC(=O)c1ccc2ccccc2c1)NC(=O)c1ccc2ccccc2c1 [N,N′-bis(2-napthoyl)guanidine]",3/1%,3/2%,5/1%,–,–,–
"O=C(/C=C/c1ccccc1)NC(=Nc1ccccc1)NC(=O)/C=C/c1ccccc1 [N,N′-bis-(cinnamoyl)-N″-phenylguanidine]",31/1%,38/2%,16/1%,–,0.94/2 score,–
N/C(=N/C(=O)c1ccc2ccccc2c1)Nc1ccccc1 [N-(2-napthoyl)-N′-phenylguanidine],–,–,–,0.07/2 score,–,–
"CN(C)C(=N)NC(=O)/C=C/c1ccccc1 [N-Cinnamoyl-N′,N′-dimethylguanidine]",24/2%,65/3%,92/2%,–,–,–
"NC(N)=NC(=O)c1nc(-c2ccccc2)c(N)nc1N [N-amidino-3,5-diamino-6-phenyl-2-pyrazinecarboxamide]",25/1%,39/2%,53/1%,–,–,–
NC(N)=NC(=O)c1nc(-c2ccccc2)c(N2CCCCCC2)nc1N [N-amidino-3-amino-5-hexamethyleneimino-6-phenyl-2-pyrazinecarboxamide],48/1%,52/2%,84/1%,–,0.6/2 score,–
NC(N)=NC(=O)c1nc(Cl)c(-c2ccccc2)nc1N [N-amidino-3-amino-5-phenyl-6-chloro-2-pyrazinecarboxamide],9/1%,20/2%,20/1%,–,0.5/11 score,–
"O=C(/C=C/c1ccccc1)N=C(Nc1ccccc1)Nc1ccccc1 [N″-Cinnamoyl-N,N′-diphenylguanidine]",34/1%,72/2%,97/1%,–,–,–
"N/C(=N\C(=O)c1nc(Cl)c(N)nc1N)Nc1ccccc1 [Phenamil methanesulfonate salt, N-(3,5-Diamino-6-chloro-pyrazine-2-carbonyl)-N′-phenylguanidine]",–,–,–,0.13/2 score,0.9/5 score,–
N=C(N)NC(=O)/C=C/c1cccnc1 [[3-(3-Pyridyl)acryloyl]guanidine],21/2%,73/2%,81/2%,0.67/3 score,–,–
C/C(=C\c1ccc(N(C)C)cc1)C(=O)NC(=N)N [[(E)-3-(4-Dimethylaminophenyl)-2-methylacryloyl]guanidine],37/1%,45/1%,56/1%,–,–,–
